Common to all, as to assay type: physicochemical
The nature of series [1]: Aqueous solubility at pH 7.
The nature of series [2]: Aqueous solubility was determined. To be noted: buffer.
Series [3] in a line: Aqueous solubility at pH 6.6.

≈ marks a conversion by molar mass, not a printed value.

The term solubility denotes the dissolved amount per volume that the medium holds. Low values mean a poorly soluble substance, high ones a readily soluble substance.

With `C[C@@H](c1nc(-c2ccc(C#N)cc2)cs1)[C@@](Cn1cncn1)(OCOP(=O)(O)O)c1ccc(F)cc1F` [FOSRAVUCONAZOLE], the solubility in series [1] was more than 30 µg/mL.

With `C[C@@H](c1nc(-c2ccc(C#N)cc2)cs1)[C@](O)(Cn1cncn1)c1ccc(F)cc1F` [RAVUCONAZOLE], the solubility in series [2] was determined as 0.6 µg/mL (≈ 1.37 µM). `C[C@@H](c1nc(-c2ccc(C#N)cc2)cs1)[C@](O)(Cn1c[n+](COP(=O)([O-])O)cn1)c1ccc(F)cc1F` had a solubility in series [3] of more than 30 µg/mL.

Source of the values: ChEMBL document CHEMBL1145879, “Phosphonooxymethyl prodrugs of the broad spectrum antifungal azole, ravuconazole: synthesis and biological properties” (Bioorg Med Chem Lett, 2003).
